Laboratory results reported in patent US12486489B2, “Culture medium for testing drug resistance of H.pylori as well as preparation method and use thereof” (priority 2022, dated 2025).
Like-named read-outs stand apart in the source and are kept apart here.

Tested on: H. pylori
Assay: MIC of laboratory H. pylori strains by micro dilution method
Format: cell-based
Conditions: Helicobacter pylori
Method: (3) Preparation of bacterial solution: H. pylori grown in logarithmic phase on a solid plate is taken, BHI culture medium is used to prepare a bacterial suspension. The concentration of the bacterial solution is adjusted to 1×10^8 CFU/mL (OD600 is 0.3), diluted 10 times, 100 times, and 1000 times to implement a final concentration of […], for the subsequent use.
(4) Inoculation of bacterial solution: 10 μL of the above bacterial solution for the subsequent use is taken and added to wells the 1-10-th and the 12-th well (bacterial working concentration is 1×10^6 CFU/mL), the 11-th well serves as a non-bacterial control and only sterile water is added. The wells are cultivated for 72 hours to determine the results.

[1] = read-out: MICs, standard sensitive strains G27 and 26695, bacterial count 1×10^6 CFU/mL
[2] = read-out: minimum inhibitory concentration (MIC), strain 159, bacterial count 10^6 CFU/mL (first line of the strain)
[3] = read-out: minimum inhibitory concentration (MIC), strain 161, bacterial count 10^6 CFU/mL (first line of the strain)
[4] = read-out: minimum inhibitory concentration (MIC), strain 162, bacterial count 10^6 CFU/mL (first line of the strain)
[5] = read-out: minimum inhibitory concentration (MIC), strain 163, bacterial count 10^4 CFU/mL
[6] = read-out: minimum inhibitory concentration (MIC), strain 163, bacterial count 10^6 CFU/mL (first line of the strain)
[7] = read-out: minimum inhibitory concentration (MIC), strain 163, bacterial count 10^6 CFU/mL (second line of the strain)
[8] = read-out: minimum inhibitory concentration (MIC), strain 286, bacterial count 10^4 CFU/mL
[9] = read-out: minimum inhibitory concentration (MIC), strain 286, bacterial count 10^6 CFU/mL (first line of the strain)
[10] = read-out: minimum inhibitory concentration (MIC), strain 286, bacterial count 10^6 CFU/mL (second line of the strain)
[11] = read-out: minimum inhibitory concentration (MIC), strain 287, bacterial count 10^6 CFU/mL (first line of the strain)
[12] = read-out: minimum inhibitory concentration (MIC), strain 287, bacterial count 10^6 CFU/mL (second line of the strain)
[13] = read-out: minimum inhibitory concentration (MIC), strain 289, bacterial count 10^4 CFU/mL
[14] = read-out: minimum inhibitory concentration (MIC), strain 289, bacterial count 10^6 CFU/mL (first line of the strain)
[15] = read-out: minimum inhibitory concentration (MIC), strain 289, bacterial count 10^6 CFU/mL (second line of the strain)
[16] = read-out: minimum inhibitory concentration (MIC), strain 290, bacterial count 10^4 CFU/mL
[17] = read-out: minimum inhibitory concentration (MIC), strain 290, bacterial count 10^6 CFU/mL (first line of the strain)
[18] = read-out: minimum inhibitory concentration (MIC), strain 290, bacterial count 10^6 CFU/mL (second line of the strain)
[19] = read-out: minimum inhibitory concentration (MIC), strain 26695, bacterial count 10^6 CFU/mL (second line of the strain)
[20] = strain G27, bacterial count 10^4 CFU/mL, read-out: minimum inhibitory concentration (MIC)
[21] = strain G27, bacterial count 10^6 CFU/mL (first line of the strain), read-out: minimum inhibitory concentration (MIC)
[22] = strain G27, bacterial count 10^6 CFU/mL (second line of the strain), read-out: minimum inhibitory concentration (MIC)
[23] = read-out: minimum inhibitory concentration (MIC), strain 159, bacterial count 10^4 CFU/mL
[24] = read-out: minimum inhibitory concentration (MIC), strain 161, bacterial count 10^4 CFU/mL
[25] = read-out: minimum inhibitory concentration (MIC), strain 161, bacterial count 10^6 CFU/mL (second line of the strain)
[26] = read-out: minimum inhibitory concentration (MIC), strain 162, bacterial count 10^4 CFU/mL
[27] = read-out: minimum inhibitory concentration (MIC), strain 162, bacterial count 10^6 CFU/mL (second line of the strain)
[28] = read-out: minimum inhibitory concentration (MIC), strain 287, bacterial count 10^4 CFU/mL
[29] = resistant strains 159, 161, 162, 163, 286, 287, 289, and 290, bacterial count 1×10^6 CFU/mL, read-out: MICs
[30] = read-out: minimum inhibitory concentration (MIC), strain 159, bacterial count 10^6 CFU/mL (second line of the strain)

SMILES	MIC [1] [µg/mL]	MIC [2] [µg/mL]	MIC [3] [µg/mL]	MIC [4] [µg/mL]	MIC [6] [µg/mL]	MIC [7] [µg/mL]	MIC [8] [µg/mL]	MIC [9] [µg/mL]	MIC [10] [µg/mL]	MIC [11] [µg/mL]	MIC [12] [µg/mL]	MIC [13] [µg/mL]	MIC [14] [µg/mL]	MIC [15] [µg/mL]	MIC [16] [µg/mL]	MIC [17] [µg/mL]	MIC [18] [µg/mL]	MIC [20] [µg/mL]	MIC [21] [µg/mL]	MIC [22] [µg/mL]	also measured
CC1(C)S[C@@H]2[C@H](NC(=O)[C@H](N)c3ccc(O)cc3)C(=O)N2[C@H]1C(=O)O [Amoxicillin, amoxicillin]	0.0156 to 0.0325	0.125	0.125	0.125	1	0.5	0.5	1	0.5	0.25	0.125	0.125	1	0.5	1	4	2	0.00781	0.0312	0.0156	MIC [5]: 0.25 µg/mL; MIC (read-out: minimum inhibitory concentration (MIC), strain 26695, bacterial count 10^4 CFU/mL): 0.0325 µg/mL; MIC [19]: 0.0325 µg/mL
CC[C@H]1OC(=O)[C@H](C)[C@@H](O[C@H]2C[C@@](C)(OC)[C@@H](O)[C@H](C)O2)[C@H](C)[C@@H](O[C@@H]2O[C@H](C)C[C@H](N(C)C)[C@H]2O)[C@](C)(OC)C[C@@H](C)C(=O)[C@H](C)[C@@H](O)[C@]1(C)O [Clarithromycin, clarithromycin]	0.0312 to 0.0625	–	2	8	0.5	0.25	1	8	4	4	2	2	32	8	4	16	4	0.0156	0.0625	0.0312	MIC [23]: 0.0312 µg/mL; MIC [24]: 0.5 µg/mL; MIC [25]: 1 µg/mL; MIC [26]: 1 µg/mL; MIC [27]: 4 µg/mL; MIC [28]: 8 µg/mL; MIC [29]: 0.0625 to 8 µg/mL; MIC (strain 159, bacterial count 10^6 CFU/mL (first line of the strain), read-out: minimum inhibitory concentration (MIC)): 0.125 µg/mL; MIC (strain 159, bacterial count 10^6 CFU/mL (second line of the strain), read-out: minimum inhibitory concentration (MIC)): 0.0625 µg/mL; MIC (strain 163, bacterial count 10^4 CFU/mL, read-out: minimum inhibitory concentration (MIC)): 0.125 µg/mL; MIC (strain 26695, bacterial count 10^6 CFU/mL (first line of the strain), read-out: minimum inhibitory concentration (MIC)): 0.125 µg/mL; MIC (strain 26695, bacterial count 10^6 CFU/mL (second line of the strain), read-out: minimum inhibitory concentration (MIC)): 0.0625 µg/mL
C[C@H]1COc2c(N3CCN(C)CC3)c(F)cc3c(=O)c(C(=O)O)cn1c23 [Levofloxacin, levofloxacin]	–	2	2	8	16	4	0.5	1	0.5	4	2	2	8	4	16	32	32	0.0312	0.125	0.0625	MIC [23]: 0.5 µg/mL; MIC [30]: 1 µg/mL; MIC [24]: 1 µg/mL; MIC [25]: 2 µg/mL; MIC [26]: 2 µg/mL; MIC [27]: 4 µg/mL; MIC [5]: 2 µg/mL; MIC [28]: 1 µg/mL; MIC [29]: 0.5 to 32 µg/mL
Cc1ncc([N+](=O)[O-])n1CCO [Metronidazole, metronidazole]	0.25	4	4	2	16	4	4	32	16	32	16	8	32	16	4	32	16	0.125	0.5	0.5	MIC [30]: 2 µg/mL; MIC [24]: 1 µg/mL; MIC [25]: 2 µg/mL; MIC [27]: 1 µg/mL; MIC [5]: 2 µg/mL; MIC [28]: 8 µg/mL; MIC [19]: 0.25 µg/mL; MIC [29]: 1 to 16 µg/mL
